The values that follow come from ChEMBL document CHEMBL1121385, “Phenylalkylamines with potential psychotherapeutic utility. 2. Nuclear substituted 2-amino-1-phenylbutanes” (1980).

Assay [1] concerns Felis catus. Kind of assay: Numerical score on cat behavior was measured at a dose of 10 mg/kg, administered subcutaneously. Type of assay: functional. The conditions noted are these: route subcutaneous.
The species entered for assay [2] is Rattus norvegicus. Nature of the assay: Potency to produce a significant increase in avoidance responding in rat relative to BL-3912A. Type of assay: functional.
The species named for assay [3] is Rattus norvegicus. Nature of the assay: Evaluated for intertrial interval activity in rat; statistically significant increase. Type of assay: functional, organism-based.
The subject of assay [4] is Rattus norvegicus. Nature of the assay: Minimal dose (ip) required to produce a significant increase in avoidance responding in rat. Type of assay: functional. The conditions noted are these: read-out: MED.
For assay [5], the system named is Felis catus. Kind of assay: Numerical score on cat behavior was measured at a dose of 10 mg/kg administered subcutaneously. Type of assay: functional. The settings on record: route subcutaneous.
Assay [6] is filed under the species Rattus norvegicus. Kind of assay: Evaluated for intertrial interval activity in rat; NE means no statistically significant effect. In kind it is functional, organism-based.
The species named for assay [7] is Rattus norvegicus. Kind of assay: Evaluated for intertrial interval activity in rat; NE means no statistically significant activity. Type of assay: functional, organism-based.

`CC[C@H](N)Cc1cc(OC)c(Br)cc1OC.Cl`: in assay [1], the Cat score amounted to 2.
In assay [1], `CC[C@@H](N)Cc1cc(OC)c([N+](=O)[O-])cc1OC.Cl` registered a Cat score of 3.5.
On to `CCCc1cc(OC)c(C[C@H](N)CC)cc1OC.Cl`, for which, in assay [2], the Relative potency amounted to 5. In assay [3], the ITI activity entry was “Statistically significant increase”. Further, the Cat score in assay [1] was 0.5. Besides, in assay [4], the minimal effective dose amounted to 1 mg/kg.
For the compound `CCC(N)Cc1cc(OC)ccc1OC.Cl` (racemic), the Cat score in assay [1] turned out to be 2.
Still for that read-out and setting: the figure for `CC[C@@H](N)Cc1cc(OC)c(I)cc1OC.Cl` is 2.5.
With `CCc1cc(OC)c(C[C@H](N)CC)cc1OC.Cl`, the Relative potency in assay [2] amounted to 2.5. Besides, the ITI activity result in assay [3] is “Statistically significant increase”. The compound also yielded a Cat score in assay [5] of 3.3. In addition, the minimal effective dose in assay [4] turned out to be 2 mg/kg.
In assay [1], `CC[C@@H](N)Cc1cc(OC)c(N)cc1OC.Cl` registered a Cat score of 1.5.
Still for that read-out and setting: the figure for `CCC(N)Cc1cc(OC)c(C(C)C)cc1OC.Cl` (racemic) is 0.5; for `CCCOc1cc(OC)c(C[C@H](N)CC)cc1OC.Cl` it is 1.5.
Turning to `CC[C@@H](N)Cc1cc(OC)ccc1OC.Cl`, the Cat score in assay [1] (10 mg/kg) was found to be 0.5.
In assay [1], `CC[C@@H](N)Cc1cc(OC)c(OC(C)C)cc1OC.Cl` showed a Cat score of 0.
`CC[C@@H](N)Cc1cc(OC)c(Br)cc1OC.Cl` showed a Relative potency in assay [2] of 2.5. For the same compound, the ITI activity result in assay [3] was “Statistically significant increase”. This compound also registered a Cat score in assay [5] of 3.5. Also, the minimal effective dose in assay [4] was 2 mg/kg.
On to `CC[C@@H](N)Cc1cc(OC)c(Cl)cc1OC.Cl`, for which the Relative potency in assay [2] stood at 0.25. In assay [1], the Cat score is recorded as 6.5. In assay [6], the ITI activity entry is “No effect”. The minimal effective dose in assay [4] is 20 mg/kg.
As to `CCc1cc(OC)c(CC(N)CC)cc1OC.Cl` (racemic), the Cat score in assay [5] worked out at 4.
The compound `CCC(N)Cc1cc(OC)ccc1OC.Cl` (single isomer, unassigned) registered a Cat score in assay [1] (10 mg/kg) of 2.
`CCc1cc(OC)c(C[C@@H](N)CC)cc1OC.Cl` displayed a Cat score in assay [1] of 1.
Compound `CCCCc1cc(OC)c(C[C@H](N)CC)cc1OC.Cl` had a Relative potency in assay [2] of less than 0.25. In addition, in assay [7], the ITI activity result is “No effect”. In addition, in assay [1], the Cat score was found to be 0. Moreover, the minimal effective dose in assay [4] was greater than 20 mg/kg.
As for `CC[C@H](N)Cc1cc(OC)c(SC)cc1OC.Cl`, in assay [1], the Cat score worked out at 1.
Regarding `CCOc1cc(OC)c(C[C@H](N)CC)cc1OC.Cl`, the Cat score in assay [1] came out at 1.5.
In turn, `CCC(N)Cc1cc(OC)c(SC)cc1OC.Cl` (racemic) yielded a Cat score in assay [1] of 1.
The same measure, in the same setting: the figure for `CCC(N)Cc1cc(OC)c(Br)cc1OC.Cl` (racemic) is 2.
The compound `CC[C@H](N)Cc1cc(OC)c(C)cc1OC.Cl` yielded a Cat score in assay [5] of 0.5.
With `CCCOc1cc(OC)c(CC(N)CC)cc1OC.Cl` (racemic), the Cat score in assay [1] amounted to 0.
For `CC[C@@H](N)Cc1cc(OC)c(C(C)C)cc1OC.Cl`, the Relative potency in assay [2] is given as less than 0.25. The Cat score in assay [1] stood at 0. Also, the ITI activity result in assay [6] is “No effect”. Moreover, the minimal effective dose in assay [4] is greater than 20 mg/kg.
For the compound `CC[C@@H](N)Cc1cc(OC)c(O)cc1OC.Cl`, in assay [1], the Cat score was 0.5.
Compound `CC[C@@H](N)Cc1cc(OC)c(C)cc1OC.Cl` [DIMOXAMINE HYDROCHLORIDE] showed a Relative potency in assay [2] of 1. For the same compound, in assay [6], the ITI activity result is “No effect”. Also, in assay [5], the Cat score was determined as 1.3. The minimal effective dose in assay [4] came out at 5 mg/kg.
In the case of `CCCc1cc(OC)c(CC(N)CC)cc1OC.Cl` (racemic), the Cat score in assay [1] was 2.5.
